# Measurements as given in BindingDB's records for doi:10.1021/jm00037a021 (Rhône-Poulenc Rorer, 1994).
# Target: cGMP-specific 3',5'-cyclic phosphodiesterase PDE V (Sus scrofa)
# Assay: Inhibitory potency against pig aortic PDE V.
row,Compound,IC50 [µM]
1,COc1ccc(C(=O)Nc2c(C)cccc2Cl)cc1OC1CCCC1 [N-(2-Chloro-6-methyl-phenyl)-3-cyclopentyloxy-4-methoxy-benzamide],> 1000
2,"COc1ccc(C(=O)Nc2c(F)cccc2F)cc1OC1CCCC1 [3-Cyclopentyloxy-N-(2,6-difluoro-phenyl)-4-methoxy-benzamide]",> 1000
3,COc1ccc(C(=O)Nc2ccc(F)cc2)cc1OC1CCCC1 [3-Cyclopentyloxy-N-(4-fluoro-phenyl)-4-methoxy-benzamide],> 1000
4,COc1ccc(C(=O)Nc2c(F)cccc2Cl)cc1OC1CCCC1 [N-(2-Chloro-6-fluoro-phenyl)-3-cyclopentyloxy-4-methoxy-benzamide],> 1000
5,COc1ccc(C(=O)Nc2ccccc2C)cc1OC1CCCC1 [3-Cyclopentyloxy-4-methoxy-N-o-tolyl-benzamide],> 1000
6,COc1ccc(C(=O)Nc2ccccc2F)cc1OC1CCCC1 [3-(cyclopentyloxy)-N-(2-fluorophenyl)-4-methoxybenzamide],> 1000
7,COc1ccc(C(=O)Nc2ccccc2C(F)(F)F)cc1OC1CCCC1 [3-Cyclopentyloxy-4-methoxy-N-(2-trifluoromethyl-phenyl)-benzamide],> 1000
8,COc1ccc(C(=O)Nc2ccc(Cl)cc2)cc1OC1CCCC1 [N-(4-Chloro-phenyl)-3-cyclopentyloxy-4-methoxy-benzamide],> 1000

# Next, values leading:
row,IC50 [µM],Compound
1,> 200,COc1ccc(C(=O)Nc2ccccc2SC)cc1OC1CCCC1 [3-Cyclopentyloxy-4-methoxy-N-(2-methylsulfanyl-phenyl)-benzamide]
2,> 1000,COc1ccc(C(=O)Nc2ccccc2Br)cc1OC1CCCC1 [N-(2-Bromo-phenyl)-3-cyclopentyloxy-4-methoxy-benzamide]
3,> 40,COc1ccc(C(=O)Nc2cccc(Cl)c2)cc1OC1CCCC1 [N-(3-Chloro-phenyl)-3-cyclopentyloxy-4-methoxy-benzamide]
4,> 200,COc1ccc(C(=O)Nc2ccc(C)cc2)cc1OC1CCCC1 [3-Cyclopentyloxy-4-methoxy-N-p-tolyl-benzamide]
5,175,COc1ccc(C(=O)Nc2ccccc2O)cc1OC1CCCC1 [3-Cyclopentyloxy-N-(2-hydroxy-phenyl)-4-methoxy-benzamide]
6,5.5,COC(=O)c1ccccc1NC(=O)c1ccc(OC)c(OC2CCCC2)c1 [2-(3-Cyclopentyloxy-4-methoxy-benzoylamino)-benzoic acid methyl ester]
7,2.5,COc1ccc(C(=O)Nc2ccccc2C(=O)c2ccccc2)cc1OC1CCCC1 [N-(2-Benzoyl-phenyl)-3-cyclopentyloxy-4-methoxy-benzamide]
8,> 200,"COc1ccc(C(=O)Nc2cccc(Cl)c2Cl)cc1OC1CCCC1 [3-Cyclopentyloxy-N-(2,3-dichloro-phenyl)-4-methoxy-benzamide]"
9,> 200,COc1ccc(C(=O)Nc2ccccc2Cl)cc1OC1CCCC1 [N-(2-Chloro-phenyl)-3-cyclopentyloxy-4-methoxy-benzamide]
